Laboratory results published in patent publication US20250313563A1, “GLYCOGEN SYNTHASE KINASE 3 INHIBITORS AND USES THEREOF” (The Broad Institute, Inc., priority 2022, published 2025).
Where two headings read alike, the source gives them in different places.

Legend:
[1] = biological target: GSK3b (GST-full length GSK3b) (Homo sapiens (Human), UniProt P49841); experiment: GSK3b TR-FRET kinase assay; type: biochemical
In short: (§1)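 Readout: anti-pSer641 Tb antibody/streptavidin-d2 signal after 60 min, expressed as 665/615 ratio and fitted versus log concentration for IC50. Enzyme: 1 nM GST-GSK3 (α or β), compound-preincubated 30 min. Conditions: pH 7.5 Tris buffer with MgCl2, DTT, BSA; ATP at 4 or 2 μM, or 1 mM; 100 min.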

[2] = biological target: GSK3α (GST-full length GSK3α) (Homo sapiens (Human), UniProt P49840); experiment: GSK3α TR-FRET kinase assay; type: biochemical
Chain of GSK3α (GST-full length GSK3α) (P49840 whole entry): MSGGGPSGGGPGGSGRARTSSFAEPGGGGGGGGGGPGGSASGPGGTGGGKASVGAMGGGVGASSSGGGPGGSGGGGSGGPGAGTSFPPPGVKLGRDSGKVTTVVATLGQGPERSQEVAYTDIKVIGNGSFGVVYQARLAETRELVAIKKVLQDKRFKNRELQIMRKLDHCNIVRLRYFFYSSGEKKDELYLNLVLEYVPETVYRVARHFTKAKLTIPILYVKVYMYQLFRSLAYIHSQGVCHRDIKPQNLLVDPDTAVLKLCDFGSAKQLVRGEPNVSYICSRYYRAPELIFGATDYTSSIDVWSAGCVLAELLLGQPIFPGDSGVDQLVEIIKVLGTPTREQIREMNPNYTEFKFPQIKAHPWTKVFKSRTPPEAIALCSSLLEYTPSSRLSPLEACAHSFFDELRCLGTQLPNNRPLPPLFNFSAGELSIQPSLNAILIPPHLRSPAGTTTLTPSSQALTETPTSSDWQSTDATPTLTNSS
In short: as §1

[3] = 1 nM GSK3b, 2 μM ATP, 30 minute preincubation, Table 16, read-out: GSK3-B TR-FRET BIOCHEMICAL (TR-FRET)
[4] = 1 nM GSK3α, 4 μM ATP, 30 minute preincubation, Table 16, read-out: GSK3-A TR-FRET BIOCHEMICAL (TR-FRET)
[5] = 1 nM GSK3b, 2 μM ATP, 30 minute preincubation, Table 16, read-out: GSK3-B TR-FRET BIOCHEMICAL (TR-FRET), IC50
[6] = 1 nM GSK3α, 4 μM ATP, 30 minute preincubation, Table 16, read-out: GSK3-A TR-FRET BIOCHEMICAL (TR-FRET), IC50
[7] = read-out: GSK3-B (TR-FRET 1 mM ATP), GMean, IC50, 1 mM ATP, geometric mean
[8] = read-out: GSK3-A (TR-FRET 1 mM ATP), GMean, IC50, 1 mM ATP, geometric mean

Chain of GSK3b (GST-full length GSK3b) (P49841 whole entry): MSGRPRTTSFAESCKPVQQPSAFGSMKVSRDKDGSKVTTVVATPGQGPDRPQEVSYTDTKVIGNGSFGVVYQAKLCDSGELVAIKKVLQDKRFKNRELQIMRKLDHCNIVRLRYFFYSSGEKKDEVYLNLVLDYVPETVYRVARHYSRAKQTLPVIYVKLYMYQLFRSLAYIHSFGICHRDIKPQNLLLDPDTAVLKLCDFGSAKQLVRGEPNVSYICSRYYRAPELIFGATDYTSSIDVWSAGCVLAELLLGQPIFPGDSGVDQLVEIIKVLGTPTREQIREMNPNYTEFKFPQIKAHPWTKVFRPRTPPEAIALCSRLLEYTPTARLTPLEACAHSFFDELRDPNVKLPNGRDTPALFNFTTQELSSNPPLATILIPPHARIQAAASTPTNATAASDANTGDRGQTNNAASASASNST

SMILES | IC50 [1, 3] [nM] | IC50 [2, 4] [nM] | IC50 [1, 5] [nM] | IC50 [2, 6] [nM] | IC50 [1, 7] [nM] | IC50 [2, 8] [nM]
CC[C@]1(c2ccccc2)C2=C(C[C@@]3(CCN(C)C3=O)CC2=O)Nc2n[nH]cc21 [Compound 949753] | > 5000 | 1000 to 5000 | – | – | – | –
CC[C@]1(c2ccccc2)C2=C(C[C@]3(CCN(C)C3=O)CC2=O)Nc2n[nH]cc21 [Compound 949754] | > 5000 | > 5000 | – | – | – | –
CC[C@]1(c2cccc(-c3ccncc3F)c2)C2=C(CC(C)(C)NC2=O)Nc2n[nH]c(Cl)c21 [Compound 949756] | – | – | > 5000 | > 5000 | – | –
CC[C@@]1(c2cccc(-c3ccncc3F)c2)C2=C(CC(C)(C)NC2=O)Nc2n[nH]c(Cl)c21 [Compound 949757] | – | – | ≤ 100 | ≤ 100 | 1000 to 5000 | 100 to 1000
CC[C@@]1(c2ccccc2)C2=C(C[C@]3(CCN(C)C3=O)CC2=O)Nc2n[nH]cc21 [Compound 949759] | > 5000 | > 5000 | – | – | – | –
CC[C@@]1(c2ccccc2)C2=C(C[C@@]3(CCN(C)C3=O)CC2=O)Nc2n[nH]cc21 [Compound 949760] | > 5000 | 100 to 1000 | – | – | – | –
CCC1(c2cccc(C(C)C)c2)C2=C(CC(C)(C)NC2=O)Nc2n[nH]cc21 (stereo not shown) [Compound 949761] | – | – | 100 to 1000 | ≤ 100 | > 5000 | 100 to 1000
CCC1(c2cccc(Br)c2)C2=C(CC(C)(C)C2=O)Nc2n[nH]cc21 (stereo not shown) [Compound 949805] | – | – | 1000 to 5000 | 100 to 1000 | – | –
CCC1(c2cccc(C(F)(F)F)c2)C2=C(CCN(c3ccn(C)n3)C2=O)Nc2n[nH]cc21 (stereo not shown) [Compound 949835] | – | – | 100 to 1000 | ≤ 100 | – | –
CC[C@]1(c2cccc(C(F)(F)F)c2)C2=C(CCN(c3ccn(C)n3)C2=O)Nc2n[nH]cc21 [Compound 949836] | – | – | > 5000 | 1000 to 5000 | – | –
CCC1(c2cccc(-c3ccnc(C)c3)c2)C2=C(CC(C)(C)C2=O)Nc2n[nH]cc21 (stereo not shown) [Compound 949840] | – | – | 1000 to 5000 | 100 to 1000 | – | –
CCn1cc(N2CCC3=C(C2=O)[C@](CC)(c2cccc(C(F)(F)F)c2)c2c[nH]nc2N3)cn1 [Compound 949867] | – | – | 100 to 1000 | ≤ 100 | – | –
CCn1cc(N2CCC3=C(C2=O)[C@](CC)(c2cccc(C(F)(F)F)c2)c2c[nH]nc2N3)cn1 [Compound 949868] | – | – | > 5000 | 100 to 1000 | – | –
CCC1(c2cccc(-c3cc(C)nnc3C)c2)C2=C(CC(C)(C)NC2=O)Nc2n[nH]c(C(F)(F)F)c21 (stereo not shown) [Compound 949910] | – | – | ≤ 100 | ≤ 100 | – | –
CC[C@]1(c2cccc(-c3cnn(C)c3)c2)C2=C(CC(C)(C)NC2=O)Nc2n[nH]c(C(F)F)c21 [Compound 949911] | – | – | > 5000 | 100 to 1000 | – | –
CC[C@@]1(c2cccc(-c3cnn(C)c3)c2)C2=C(CC(C)(C)NC2=O)Nc2n[nH]c(C(F)F)c21 [Compound 949919] | – | – | ≤ 100 | ≤ 100 | 100 to 1000 | ≤ 100

Results, then the compound that gave them:

IC50 [1, 3] [nM] | IC50 [2, 4] [nM] | IC50 [1, 5] [nM] | IC50 [2, 6] [nM] | IC50 [1, 7] [nM] | IC50 [2, 8] [nM] | SMILES
– | – | 100 to 1000 | ≤ 100 | – | – | CC[C@]1(c2cccc(-c3cnn(C4CC4(F)F)c3)c2)C2=C(CC(C)(C)NC2=O)Nc2n[nH]cc21 (stereo partly shown) [Compound 950060]
– | – | > 5000 | 100 to 1000 | – | – | CC[C@]1(c2cccc(-c3cnn(C(C)C)c3F)c2)C2=C(CC(C)(C)NC2=O)Nc2n[nH]cc21 [Compound 950061]
– | – | 1000 to 5000 | ≤ 100 | – | – | CCC1(c2cccc(Cc3ncccn3)c2)C2=C(CC(C)(C)NC2=O)Nc2n[nH]cc21 (stereo not shown) [Compound 950151]
> 5000 | 1000 to 5000 | – | – | – | – | CC[C@]1(c2ccccc2)C2=C(C[C@@]3(CCNC3=O)CC2=O)Nc2n[nH]cc21 [Compound 950160]
> 5000 | 1000 to 5000 | – | – | – | – | CC[C@@]1(c2ccccc2)C2=C(C[C@@]3(CCNC3=O)CC2=O)Nc2n[nH]cc21 [Compound 950161]
– | – | 100 to 1000 | 100 to 1000 | – | – | CCC1(c2cccc(-c3ccnc(C)c3)c2)C2=C(CC(C)(C)NC2=O)Nc2n[nH]c(C(F)F)c21 (stereo not shown) [Compound 950162]
> 5000 | > 5000 | – | – | – | – | CC[C@@]1(c2ccccc2)C2=C(C[C@]3(CCNC3=O)CC2=O)Nc2n[nH]cc21 [Compound 950164]
> 5000 | > 5000 | – | – | – | – | CC[C@]1(c2ccccc2)C2=C(C[C@]3(CCNC3=O)CC2=O)Nc2n[nH]cc21 [Compound 950165]
– | – | 1000 to 5000 | ≤ 100 | – | – | CC[C@]1(c2cccc(-c3cnn(C(F)F)c3)c2)C2=C(CC(C)(C)NC2=O)Nc2n[nH]cc21 [Compound 950254]
– | – | 100 to 1000 | ≤ 100 | – | – | CC[C@@]1(c2cccc(C(F)(F)F)c2)C2=C(CC(C)(C)C2=O)Nc2n[nH]cc21 [Compound 950272]
